Measurements reported in EP0335545B2, “Pharmaceutical formulations for parenteral use” (UNIVERSITY OF FLORIDA, priority 1988, dated 1989).
Values after ≈ are worked out from the molar mass of the structure shown.

Experiments:
[1] = Solubilizing effect of a 50% w/w solution of HPCD on steroids and CDS; settings: 50% w/w aqueous hpcd
Protocol: An excess of E2-CDS was sonicated with an aqueous solution of the appropriate solubilizing agent for 30 minutes. The suspension was then centrifuged, filtered through 0.45 µm polyvinylidene difluoride (Millex-HV4, Millipore®) membranes and analyzed by HPLC. […] An estimation of the bulk equilibrium constant was obtained by correlating the millimolarity of E2-CDS solubilized and the millimolarity of the cyclodextrin added. This latter value was calculated using the average molecular weight of the isomeric mixture determined by mass spectroscopy. The solubilizing effect of a 50% w/w solution of HPCD was also examined for a series of steroids and dihydropyridines (CDS). These studies were carried out in a similar manner to those previously described.
For the CDS, the wavelength monitored was 360 nm while for estrogen 220 nm was used.
Separation was achieved on an Analytical Sciences, Inc. (ASI) 10 µm particle size, C18 reversed phase 30 cm x 3.9 mm i.d. analytical column. The flow rate was 1 mL/min, the compounds were detected at 360 nm and in all determinations the temperature was ambient. […] For the GABA-CDS1, a mobile phase consisting of 50:1:1:48 of the same components was required. […] Other compounds were assayed spectrophotometrically.

[2] = Preparation of solid freeze-dried HPCD complexes: degree of incorporation; type: physicochemical
Protocol: An excess of E2-CDS was added and the solution then was purged with helium. The resulting suspension was then sonicated for 30 minutes, filtered through a glass filter (ASTM 10-15M, Pyrex No. 36060) and freeze-dried overnight. Best results were obtained by hard-freezing the aqueous solution of the E2-CDS/HPCD complex for at least 10 hours before lyophilization. The degree of complex formation was determined by dissolving a small amount of the dry complex in methanol and then analyzing by high pressure liquid chromatography (HPLC).
An excess of E2-CDS or other CDS was added to a 50% w/w solution of HPCD. The suspension was sonicated for 30 minutes, filtered through 0.45 µm PVDF membranes and freeze-dried. The degree of incorporation was determined either spectrophotometrically or by HPLC. In some cases, the effect of solubilizing agents on the degree of incorporation was examined. This involved adding small amounts of polyoxyethylene 20 cetyl ether (Brij), polyoxyethylene sorbitan monooleate (Tween 80) or ethanol to the aqueous solution prior to lyophilization.
The retention time was 5.2 min. Other compounds were assayed spectrophotometrically.
The solution was degassed and the suspension was sonicated for 30 minutes, after which it was filtered and the filtrate was lyophilized. The dried filtrate contained 65.6 mg testosterone propionate or 29.6 mg T-CDS1 per gram of cyclodextrin complex. Compounds were analyzed for decomposition by thin-layer chromatography and ultraviolet absorption.

[3] = Observation of toxicity on injection (Experiments 1-3); type: in vivo, Male Sprague-Dawley rats; settings: rats
Protocol: On day 15 after orchidectomy, rats were ether-anesthetized and the right external jugular vein exposed. Animals were then administered one of the following: testosterone-chemical delivery system (T-CDS1 or T-CDS2), testosterone (Steraloids Inc., Wilton, NH) or the vehicle, dimethyl sulfoxide (DMSO; Fisher Scientific, Fair Lawn, NJ). The testosterone-chemical delivery systems were given at doses equimolar to testosterone (25 mg/kg) so that T-CDS1 was administered at 35.5 mg/kg and rats received T-CDS2 at a dose of 45.1 mg/kg. DMSO was injected at a volume of 1 mL/kg. All compounds were administered by infusion over a 2 minute period. One milliliter of blood was withdrawn from the external jugular vein immediately before giving the drugs (1000 hours) and blood was sampled by cardiac puncture after 6, 12, 24 hours and on days 4 and 7. The sera were separated by centrifugation at 500 x g for 20 min at 4°C and stored at -20°C.
Two weeks after orchidectomy, rats were administered either T-CDS1, testosterone propionate (TP; Steraloids Inc.) or DMSO by means of intravenous infusion into the right external jugular vein in an effort to more effectively enhance the brain delivery of testosterone. It has been shown that slow infusion improves brain delivery of drugs attached to the chemical-delivery systems. […]

With `CN1C=CCC(C(=O)O[C@H]2CC[C@H]3[C@@H]4CCC5=CC(=O)CC[C@]5(C)[C@H]4CC[C@]23C)=C1` [T-CDS1, 17β-[(1,4-dihydro-1-methyl-3-pyridinylcarbonyl)oxy]androst-4-en-3-one] the solubility [1] was 17.1 mg/mL (≈ 41.8 mM), the “Amount of Drug in Dry Complex” value ([2]; freeze-dried complex from 50% w/w HPCD (ASDS 5.1)) was 29.0 mg/g and the “drug content of dried filtrate” value ([2]; lyophilized from 50% w/v aqueous HPCD, degree of substitution 5.1) was 29.6 mg per gram of cyclodextrin co. For the same molecule, the toxicity on administration ([3]; DMSO vehicle, i.v. injection or infusion) was “respiratory distress and/or death” and the toxicity on administration ([3]; complexed with HPCD, tail vein injection) was “No respiratory distress or animal loss”.
